# Results from patent US20250281499A1, “FUSED AMINO PYRIMIDINE COMPOUNDS FOR TREATMENT OF NEUROPATHIC AND NEURO-INFLAMMATORY PAIN” (Ovid Therapeutics Inc., priority 2024, published 2025).
# Target: T1, KCC2 (Homo sapiens, UniProt Q9H2X9)
# T1 construct: expressed in transfected cells; host or cells: HEK-293 (ATCC CRL-1573), Lipofectamine 2000, used 48-72 h after transfection
# T1 sequence (Q9H2X9 1-1116 isoform Q9H2X9-2): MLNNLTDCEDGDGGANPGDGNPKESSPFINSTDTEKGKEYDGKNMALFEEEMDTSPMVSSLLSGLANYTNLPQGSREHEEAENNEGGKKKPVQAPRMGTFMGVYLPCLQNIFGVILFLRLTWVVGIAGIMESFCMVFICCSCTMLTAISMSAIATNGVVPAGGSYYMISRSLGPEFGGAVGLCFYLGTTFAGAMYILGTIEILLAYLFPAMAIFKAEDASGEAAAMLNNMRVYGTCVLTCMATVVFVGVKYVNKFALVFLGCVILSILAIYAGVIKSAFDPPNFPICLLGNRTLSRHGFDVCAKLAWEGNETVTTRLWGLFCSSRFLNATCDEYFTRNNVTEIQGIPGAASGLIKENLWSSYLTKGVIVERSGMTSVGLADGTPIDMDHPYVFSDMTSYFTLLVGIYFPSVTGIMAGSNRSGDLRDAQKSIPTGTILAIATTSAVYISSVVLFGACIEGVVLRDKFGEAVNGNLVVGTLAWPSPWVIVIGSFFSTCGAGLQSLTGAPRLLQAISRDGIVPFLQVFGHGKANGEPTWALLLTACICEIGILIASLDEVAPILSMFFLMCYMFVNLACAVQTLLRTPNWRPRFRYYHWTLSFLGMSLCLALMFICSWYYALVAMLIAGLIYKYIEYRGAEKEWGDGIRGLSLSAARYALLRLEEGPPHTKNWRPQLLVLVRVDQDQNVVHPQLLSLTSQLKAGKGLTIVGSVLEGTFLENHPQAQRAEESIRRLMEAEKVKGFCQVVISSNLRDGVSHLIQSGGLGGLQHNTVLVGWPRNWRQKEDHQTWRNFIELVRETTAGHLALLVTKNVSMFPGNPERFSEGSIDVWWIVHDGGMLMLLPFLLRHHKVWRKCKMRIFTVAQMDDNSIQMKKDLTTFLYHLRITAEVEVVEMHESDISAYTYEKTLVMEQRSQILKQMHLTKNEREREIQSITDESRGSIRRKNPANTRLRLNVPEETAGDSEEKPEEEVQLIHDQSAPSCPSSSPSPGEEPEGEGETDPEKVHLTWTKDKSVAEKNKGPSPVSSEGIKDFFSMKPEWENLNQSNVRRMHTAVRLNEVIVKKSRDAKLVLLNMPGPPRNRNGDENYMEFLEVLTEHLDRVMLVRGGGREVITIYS
# Assay: Cell surface biotinylation of KCC2 in HEK-293 cells
# Format: cell-based
# Details: 15 min
# Description: Cell Culture and biotinylation. HEK-293 cells were purchased from ATCC (CRL-1573) and transfected with human KCC2 and GFP expression plasmids using Lipofectamine 2000. Cells were utilized for experimentation 48-72 h following transfection. Cells were biotinylated at 4° C. using NHS-Biotin. Following lysis and purification on immobilized avidin beads, cell surface and total fractions were subject to immunoblotting as outlined previously (Conway et al., 2017, supra).
# The reliability of the biotinylation procedure was assessed via immunoblotting with antibodies against the cytosolic protein actin. Actin was present in the total lysates but was absent from the surface fractions (FIG. 2C).
compound,measurement,setting,value
"C[C@@H]1CN(c2nc3c(c(Nc4ccc(C5CCCCC5)cc4)n2)COC3)CCO1 [Compound A, (R)—N-(4-cyclohexylphenyl)-2-(2-methylmorpholino)-5,7-dihydrofuro[3,4-d]pyrimidin-4-amine]",level of KCC2 on the plasma membrane (surface/total),0.3 μM,94.5 ±8.4 % of control
same,level of KCC2 on the plasma membrane (surface/total),3 μM,104.7±8.4 % of control
